This note sets out measurements from US9469617B2, “Molecules having certain pesticidal utilities, and intermediates, compositions, and processes related thereto” (priority 2014, dated 2016).

What all share (type): in vivo
Series [1] deals with Beet Armyworm (BAW) (Spodoptera exigua). Nature of the series: Bioassay on Beet Armyworm (BAW), 128-well diet tray assay. To be noted: 168 h, Table ABC, 50 μg/cm^2 on artificial diet, second instar larvae, five to seven days, 25° C., read-out: BAW % Control (or Mortality) rating. As to the method:
(§1) Certain molecules disclosed in this document were tested against BAW and CL using procedures described in the following examples. In the reporting of the results, the “BAW & CL Rating Table” was used (See Table Section).
Bioassays on BAW were conducted using a 128-well diet tray assay. one to five second instar BAW larvae were placed in each well (3 mL) of the diet tray that had been previously filled with 1 mL of artificial diet to which 50 μg/cm^2 of the test compound (dissolved in 50 μL of 90:10 acetone-water mixture) had been applied (to each of eight wells) and then allowed to dry. Trays were covered with a clear self-adhesive cover, and held at 25° C., 14:10 light-dark for five to seven days. Percent mortality was recorded for the larvae in each well; activity in the eight wells was then averaged. The results are indicated in the tables entitled “Table ABC: Assay Results” and “Table ABCD: Assay Results” (See Table Section).

Series [2] concerns Cabbage Looper (CL) (Trichoplusia ni). Nature of the series: Bioassay on Cabbage Looper (CL), 128-well diet tray assay. To be noted: 168 h, Table ABC, 50 μg/cm^2 on artificial diet, second instar larvae, five to seven days, 25° C., read-out: CL % Control (or Mortality) rating. As to the method:
as §1
Bioassays on CL were conducted using a 128-well diet tray assay. One to five second instar CL larvae were placed in each well (3 mL) of the diet tray that had been previously filled with 1 mL of artificial diet to which 50 μg/cm^2 of the test compound (dissolved in 50 μL of 90:10 acetone-water mixture) had been applied (to each of eight wells) and then allowed to dry. Trays were covered with a clear self-adhesive cover, and held at 25° C., 14:10 light-dark for five to seven days. Percent mortality was recorded for the larvae in each well; activity in the eight wells was then averaged. The results are indicated in the table entitled “Table ABC: Assay Results” and “Table ABCD: Assay Results” (See Table Section).

The test system of series [3] is Yellow Fever Mosquito (YFM) (Aedes aegypti). As to the kind of experiment: Bioassay on Yellow Fever Mosquito (YFM) larvae, 96-well plate. To be noted: Table ABC; about 1 day-old larvae, master plate 4000 ppm in DMSO diluted, scored on mortality after 3 days. On the procedure: Certain molecules disclosed in this document were tested against YFM using procedures described in the following paragraph. In the reporting of the results, the “GPA & YFM Rating Table” was used (See Table Section).
Master plates containing 400 μg of a molecule dissolved in 100 μL of dimethyl sulfoxide (DMSO) (equivalent to a 4000 ppm solution) are used. A master plate of assembled molecules contains 15 μL per well. To this plate, 135 μL of a 90:10 water:acetone mixture is added to each well. A robot (Biomek® NXP Laboratory Automation Workstation) is programmed to dispense 15 μL aspirations from the master plate into an empty 96-well shallow plate (“daughter” plate). There are 6 reps (“daughter” plates) created per master. The created daughter plates are then immediately infested with YFM larvae.
The day before plates are to be treated, mosquito eggs are placed in Millipore water containing liver powder to begin hatching (4 g. into 400 mL). After the daughter plates are created using the robot, they are infested with 220 μL of the liver powder/larval mosquito mixture (about 1 day-old larvae). After plates are infested with mosquito larvae, a non-evaporative lid is used to cover the plate to reduce drying. Plates are held at room temperature for 3 days prior to grading. After 3 days, each well is observed and scored based on mortality.

Each structure is given as a SMILES string.

The mortality is the share of the test organisms that died. For `COc1ccc(C(C)C)c(N2C(=O)CS/C2=N\C(=O)NC2Cc3ccc(-c4ncn(-c5ccc(OC(F)(F)F)cc5)n4)cc3C2)c1` (stereo not drawn) [P9, (Z)-1-(3-(2-Isopropyl-5-methoxyphenyl)-4-oxothiazolidin-2-ylidene)-3-(5-(1-(4-(trifluoromethoxy)phenyl)-1H-1,2,4-triazol-3-yl)-2,3-dihydro-1H-inden-2-yl)urea], the mortality at 50 µg/cm2 in series [1] and in series [2] was 50 to 100% throughout. Further, the “YFM % Control (or Mortality) rating” value in series [3] is reported as “A (80-100)”.

As to `CC(C)c1cc(F)ccc1N1C(=O)CS/C1=N\C(=O)NC1Cc2ccc(-c3ncn(-c4ccc(OC(F)(F)F)cc4)n3)cc2C1` (stereo not drawn) [P10, (Z)-1-(3-(4-Fluoro-2-isopropylphenyl)-4-oxothiazolidin-2-ylidene)-3-(5-(1-(4-(trifluoromethoxy)phenyl)-1H-1,2,4-triazol-3-yl)-2,3-dihydro-1H-inden-2-yl)urea], the mortality at 50 µg/cm2 in series [1] and in series [2] was 50 to 100% each time. The “YFM % Control (or Mortality) rating” value in series [3] was “A (80-100)”.

On to `Cc1ccc(C(C)C)c(-n2c(C)cs/c2=N\C(=O)NC2Cc3ccc(-c4ncn(-c5ccc(OC(F)(F)F)cc5)n4)cc3C2)c1` (stereo not drawn) [P12, (Z)-1-(3-(2-Isopropyl-5-methylphenyl)-4-methylthiazol-2(3H)-ylidene)-3-(5-(1-(4-(trifluoromethoxy)phenyl)-1H-1,2,4-triazol-3-yl)-2,3-dihydro-1H-inden-2-yl)urea], for which the mortality at 50 µg/cm2 in series [1] and in series [2] was 50 to 100% each time. Also, the “YFM % Control (or Mortality) rating” value in series [3] is given as “A (80-100)”.

For the compound `Cc1ccc(C(C)C)c(N2C(=O)C(C)S/C2=N\C(=O)NC2Cc3ccc(-c4ncn(-c5ccc(OC(F)(F)F)cc5)n4)cc3C2)c1` (stereo not drawn) [P13, (Z)-1-(3-(2-Isopropyl-5-methylphenyl)-5-methyl-4-oxothiazolidin-2-ylidene)-3-(5-(1-(4-(trifluoromethoxy)phenyl)-1H-1,2,4-triazol-3-yl)-2,3-dihydro-1H-inden-2-yl)urea], the mortality at 50 µg/cm2 in series [1] and in series [2] was 50 to 100% throughout. The “YFM % Control (or Mortality) rating” value in series [3] is on record as “B (More than 0-Less than 80)”.

As to `Cc1ccc(C(C)C)c(N2CC(C)CS/C2=N\C(=O)NC2Cc3ccc(-c4ncn(-c5ccc(OC(F)(F)F)cc5)n4)cc3C2)c1` (stereo not drawn) [P18, (Z)-1-(3-(2-isopropyl-5-methylphenyl)-5-methyl-1,3-thiazinan-2-ylidene)-3-(5-(1-(4-(trifluoromethoxy)phenyl)-1H-1,2,4-triazol-3-yl)-2,3-dihydro-1H-inden-2-yl)urea], the mortality at 50 µg/cm2 in series [1] and in series [2] was 50 to 100% throughout. In addition, the “YFM % Control (or Mortality) rating” value in series [3] was “A (80-100)”.

In the case of `CC(C)c1ccccc1N1CCCS/C1=N\C(=O)NC1Cc2ccc(-c3ncn(-c4ccc(OC(F)(F)F)cc4)n3)cc2C1` (stereo not drawn) [P19, (Z)-1-(3-(2-Isopropylphenyl)-1,3-thiazinan-2-ylidene)-3-(5-(1-(4-(trifluoromethoxy)phenyl)-1H-1,2,4-triazol-3-yl)-2,3-dihydro-1H-inden-2-yl)urea], the mortality at 50 µg/cm2 in series [1] and in series [2] was 50 to 100% throughout. Further, the “YFM % Control (or Mortality) rating” value in series [3] is “A (80-100)”.

On to `Cc1ccc(C(C)C)c(N2CCCS/C2=N\C(=O)NC2Cc3ccc(-c4ncn(-c5ccc(OC(F)(F)F)cc5)n4)cc3C2)c1` (stereo not drawn) [P20, (Z)-1-(3-(2-Isopropyl-5-methylphenyl)-1,3-thiazinan-2-ylidene)-3-(5-(1-(4-(trifluoromethoxy)phenyl)-1H-1,2,4-triazol-3-yl)-2,3-dihydro-1H-inden-2-yl)urea], for which the mortality at 50 µg/cm2 in series [1] and in series [2] was 50 to 100% each time. Moreover, the “YFM % Control (or Mortality) rating” value in series [3] is given as “A (80-100)”.

As for `Cc1ccc(C(C)C)c(NC(=S)NC(=O)NC2CCc3cc(-c4ncn(-c5ccc(OC(F)(F)F)cc5)n4)ccc3C2)c1` (stereo not drawn) [P21, 1-[(2-Isopropyl-5-methyl-phenyl)carbamothioyl]-3-[6-[1-[4-(trifluoromethoxy)phenyl]-1,2,4-triazol-3-yl]tetralin-2-yl]urea], the mortality at 50 µg/cm2 in series [1] and in series [2] was 50 to 100% throughout. The “YFM % Control (or Mortality) rating” value in series [3] is reported as “A (80-100)”.
